≈ marks a conversion by molar mass, not a printed value.
Tests used:
[1] = target: PfENR (Plasmodium falciparum, UniProt Q9BH77); assay: Inhibition of PfENR (P. falciparum enoyl-ACP reductase, PfFabI), spectrophotometric NADH/crotonoyl-CoA assay; type: biochemical
Experimental: PfENR activity was determined in the presence of various concentrations of the inhibitor (25 nM to 750 nM). The percent inhibition was calculated from the residual PfENR activity and was plotted against log compound NAV-117 used. The sigmoidal curve indicates the best fit for the data and IC50 value was calculated from the graph.
PfENR was assayed at two fixed concentrations -100 μM [·] and 200 μM [<] of crotonoyl CoA in presence of 250 nM of compound NAV-117 and 100 μM of NADH. Ki was calculated from the X-intercept. Plot indicates competitive kinetics with respect to crotonoyl CoA.
200 nM PfENR was assayed in presence of 200 μM crotnoyl CoA, 250 nM compound NAV-117 and 50 μM [·] and 100 μM [<] of NADH. Ki of inhibitor was calculated from the. X-intercept. Plot indicates noncompetitive kinetics with respect to NADH.
Spectrophotometric assay of enzyme activity The activity of the Enoyl-ACP reductase was assayed by following rate of the disappearance of NADH using crotonyl-CoA as a substrate. The assay mixture (100 μl) comprised of 100 μM crotonyl-CoA 100 μM NADH and 1% ethanol in […] buffer, pH 7.5. The kinetic parameters were obtained form the double reciprocal plots.
Enzyme inhibition studies The inhibition studies were carried out by preincubating enoyl ACP reductase with the respective compound and various concentrations of the coenzymes at 4° C. for 5 hours. This was warmed to 25° C. and assay was started by the addition of the crotonyl-CoA. The inhibition constant Ki was determined by using the following equation: v=v0/(1+[I]/Ki)
Kinetics of inhibition of PfENR. We deduced the kinetics of inhibition for NAV-117 with respect to crotonoyl CoA as well as NADH. The reaction velocity was measured at a fixed concentration of substrate varying the inhibitor concentration. A graph of the reciprocal of velocity against inhibitor concentration was plotted. […] The IC50 value was calculated by ploting the residual PfENR activity against log of inhibitor concentration and fitting the data points into a sigmoidal curve (FIG. 3). […]

[2] = tested on: Chloroquine-sensitive Plasmodium falciparum FCK2 strain; assay: In vitro whole-cell assay against Plasmodium falciparum in red blood cell cultures; type: cell-based
Experimental: Compound NAV 117 was assayed for in vitro growth inhibition of Plasmodium falciparum by incubating the cultures with different concentrations of the inhibitors in Me2SO (final concentration, 0.05%). The cultures were checked for growth inhibition by microscopic examination by assessing the parasitemia at every 48 h (●) and 96 h (∘). The average of three data sets has been plotted, and the error bars are shown.
In vitro whole-cell assay against Plasmodium falciparum. Antimalarial activity of NAV-117 was checked towards the Chloroquine-sensitive Plasmodium falciparum FCK2 strain in red blood cell cultures.

Sequence of PfENR (Q9BH77 entry or part of it): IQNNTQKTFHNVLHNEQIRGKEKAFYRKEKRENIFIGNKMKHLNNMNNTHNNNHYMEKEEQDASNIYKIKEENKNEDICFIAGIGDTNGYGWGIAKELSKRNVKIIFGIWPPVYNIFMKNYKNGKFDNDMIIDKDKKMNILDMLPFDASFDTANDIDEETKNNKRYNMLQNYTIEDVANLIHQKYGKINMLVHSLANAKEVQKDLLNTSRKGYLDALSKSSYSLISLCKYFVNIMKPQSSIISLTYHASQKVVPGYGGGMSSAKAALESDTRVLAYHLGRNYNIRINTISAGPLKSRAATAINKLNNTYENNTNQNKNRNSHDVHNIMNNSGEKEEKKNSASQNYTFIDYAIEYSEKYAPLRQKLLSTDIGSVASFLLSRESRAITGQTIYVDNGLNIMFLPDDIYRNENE

O=C1/C(=C/c2ccc(O)c(O)c2)SC(=S)N1c1ccccc1 [NAV-117, 5-(3,4-Dihydroxy-benzylidene)-3-phenyl-2-thioxo-thiazolidin-4-one]
inhibition kinetics with respect to crotonoyl CoA (Dixon plot) ([1]; 100 μM and 200 μM crotonoyl CoA, 100 μM NADH (FIG. 4)): competitive | inhibition kinetics with respect to NADH (Dixon plot) ([1]; 200 μM crotonoyl CoA, 50 μM and 100 μM NADH (FIG. 5)): noncompetitive | IC50 ([1]; inhibitor 25 nM to 750 nM, sigmoidal fit (FIG. 3), read-out: IC50 value (residual PfENR activity against log of inhibitor concentration) (converted)): 242 nM | IC50 ([2]; Erythrocyte, after 96 h, non-linear regression (FIG. 6), read-out: IC50 value for growth inhibition of the parasite): ~750 nM | MIC ([2]; read-out: MIC (minimum inhibitory concentration)): 2.5 µM (≈ 0.824 µg/mL)

— patent US20080051445A1, “2-Thioxothiazolidin-4-one compounds and compositions as antimicrobial and antimalarial agents targeting enoyl-ACP reductase of type II fatty acid synthesis pathway and other cell growth pathways” (NATIONAL INSTITUTE OF IMMUNOLOGY., priority 2006, published 2008)
